Data taken from PMC5349917, “Octreotide-periplocymarin conjugate prodrug for improving targetability and anti-tumor efficiency: synthesis, in vitro and in vivo evaluation” (Oncotarget, 2016).
“And” between values parts separate entries of the source, which are not always exact repeats. Equal entries are not always repeated. Where two headings read alike, the source gives them in different places.

Experiments:
HepG2 hepatoma cells = experiment: MTT growth inhibition assay, HepG2 cells; format: cell-based, human
Method: (§1) To test the antitumor activities of the synthesized compounds, we evaluated antiproliferative activities of these compounds against human cancer cell lines (Breast cancer cells, MCF-7; Hepatoma cells, HepG2) and human normal cell line (Liver cells, L-02), using the MTT assay as reported in previous studies. Both cell lines were obtained from the Cell Bank of Academy of Science (Shanghai, China).
(§2) After incubation, 20 μL of MTT (5 mg/mL in pH 7.4 PBS) was added to each well, and the plates further incubated at 37°C for 4 h. The medium was then replaced with 100 μL DMSO. The optical density was measured by Microplate Reader (Thermo Electron Corporation) at 595 nm.
(§3) Statistical significance of differences between treatment groups in the biodistribution and anti-tumor effect were assessed using an unpaired Student’s t-test. A p-value of less than 0.05 was considered significant.

[1] = Tissue distribution in H22 cell tumor bearing mice; format: in vivo, mouse; settings: for AUC0–t Heart / AUC0–t Kidney / AUC0–t Liver / AUC0–t Lung / AUC0–t Plasma / AUC0–t Spleen / AUC0–t Tumor: level of PPM, 4 mg/kg (PPM or equivalent), H22 tumor-bearing mice, 0-4 h
Method: Male Kunming strain mice (KM, 18–22 g) were purchased from Qinglongshan, Experimental Animal Center (ZhenJiang, China). Animal experiments were conducted under principles of good laboratory animal care, and approved by the Ethical Committee for Laboratory Animals Care and Use of Jiangsu University. Mouse […] (H22) cells were purchased from the Cell Bank of Academy of Science (Shanghai, China).
Approximately 1 × 10^7 H22 cells suspended in PBS (pH 7.4) were inoculated subcutaneously into the right hind leg. When the tumor volume reached 1000 mm^3 (around 7 days), mice were intravenously injected with PPM (at a dose of 4 mg/kg) or its equivalent OCT(Phe)-S-PPM via the tail vein (n = 5). At indicated time periods (0.16, 0.50, 1, 2, 3 and 4 h) after injection, blood samples were collected and mice were then sacrificed by cervical dislocation to obtain the heart, liver, spleen, lung, kidney and tumor tissues. All the samples were then washed with ice-cold saline to remove the excess fluid, weighed and stored at –20°C. The thawed tissue was homogenized in 0.9% sodium chloride solution to obtain 0.2 g/mL tissues homogenate. This was followed by the addition of bufalin (50 μl, 5 μg/ml) to the tissues (0.2 ml) with uniform mixing. Ethyl acetate (1.2 ml) was then added to the resulting mixture and thoroughly mixed for 5 min. The total supernatant or organic layer was separated by centrifugation at 3000 rpm for 10 min and transferred to a clean tube. The supernatant was dried with nitrogen at 40°C on water bath to obtain the residue, which was later reconstituted in a 0.2 mL of mobile phase solution. After centrifugation at 20,000 rpm for 10 min, the supernatant was analyzed by HPLC. The mobile phase consisted of acetonitrile and water (38:62, v/v, pH = 3.0, adjusted by H3PO4). The flow rate was 1.0 mL·min^-1 and the detection wavelength was 220 nm. Other conditions included injection volume (20 μl), column temperature (25°C) and detection sensitivity (0.02 AUFS). The retention time of PPM and Bufalin was about 7.2 and 10.8 min, respectively. The calibration curve was A = 0.9958C-0.0299 (A represented the peak area ratio of PPM and Bufalin, while C was the concentration of PPM) and was linear in the range of 0.05–10 μg/mL with a correlation coefficient of R = 0.9995.

H22 tumor = experiment: Anti-tumor efficacy in H22 tumor-bearing mice; format: in vivo, mouse; settings: H22 tumor Kunming mice, 5 times; for final tumor weight: control 0.876 ± 0.154 g
Method: (§4) Treatment was initiated when the tumor diameter reached about 0.5 cm (around 3 days). Mice were randomly assigned to four groups (n = 6) namely the control, PPM, OCT and OCT(Phe)-S-PPM groups. Treatment were administered via tail vein at a dose of 4 mg/kg every other day during the experimental period for 5 times. The control group received corresponding amounts of blank injection (ethanol/Cremophor EL, v/v, 1/1, diluted 20 times with normal saline before the injection). Their weights were measured daily and tumor size was measured (major and minor axis) with a vernier caliper thereafter and at the end of the experiment. Tumor volumes were calculated using the formula: a^2×b×0.52, where a and b refer to the longest and shortest diameter, respectively. Tumor tissues were removed from the sacrificed mice and weighed to calculate the tumor inhibition rate (TIR (%) = (1-Wt/Wc) × 100%, where Wt and Wc are the mean tumor weights of the treated groups and the negative control group, respectively. Moreover, the heart, liver and tumor were rinsed with normal saline, fixed in 10% formalin, and then embedded in paraffin blocks for later slicing and staining with hematoxylin and eosin (H&E). Finally, the sections were observed under a microscope for histopathological evaluations

[2] = Toxicity in H22 tumor-bearing mice (serum AST, ALT, ALP, body weight, heart and liver histopathology); format: in vivo, mouse; settings: for pathological images of heart sections / pathological images of liver sections: HE staining, after treatment for ten days; for ALT / AST / ALP: serum, mice sacrificed 24 h after the last administration; for ALT: control 26.86 ± 6.44; for AST: control 50.55 ± 8.82; for ALP: control 112.06 ± 14.29
Method: as §4

[3] = test system: MCF-7 breast cancer cells; experiment: MTT growth inhibition assay, MCF-7 cells; format: cell-based, human
Method: as §1, §2, §3

L-02 cells = experiment: cells; format: cell-based, human
Method: as §1
(§5) In brief, the cells were seeded into a 96-well plate at a density of 2.5 × 10^4 cells/well and incubated with OCT modified PPMs containing various concentrations (ranging from 0.001 to 50.0 μM) for 72 h. After incubation, 20 μL of MTT (5 mg/mL in pH 7.4 PBS) was added to each well, and the plates further incubated at 37°C for 4 h. The medium was then replaced with 100 μL DMSO. The optical density was measured by Microplate Reader (Thermo Electron Corporation) at 595 nm. The cell inhibition rate (IR) was calculated as follows: IR (%) = 1−A/A1×100%, where A refers to the average absorbance intensity of treated group and A1 refers to average absorbance intensity of untreated control group (the vehicle control group).
as §3, with “significant. 50% inhibiting concentration (IC50) of the sample was calculated with the aid of Curve-Expert software (version 1.3; Daniel G. Hyams, Hixson, TN, USA).” for “significant.”

[4] = cited from earlier work
[5] = test system: MFC murine gastric carcinoma cells; experiment: In vitro cytotoxicity on MFC cells; format: cell-based, mouse; settings: 72 h of incubation
Method: as §5
as §3, with “significant. 50% inhibiting concentration (IC50) of the sample was calculated with the aid of Curve-Expert software (version 1.3; Daniel G. Hyams, Hixson, TN, USA).” for “significant.”

[6] = test system: PC3, U937, HCT-8, Bel-7402, BGC823, A549 and A2780 cell lines; design: method as in PMID 17366373; settings: PC3, U937, HCT-8, Bel-7402, BGC823, A549 and A2780 cell lines in vitro; read-out: IC50 values, inhibition of proliferation; cited from earlier work
[7] = MTT, 72 h of incubation, read-out: IC50 MCF-7

With `CO[C@H]1C[C@H](O[C@H]2CC[C@]3(C)[C@H]4CC[C@]5(C)[C@@H](C6=CC(=O)OC6)CC[C@]5(O)[C@@H]4CC[C@]3(O)C2)O[C@H](C)[C@H]1OC(=O)CCC(=O)N[C@H](Cc1ccccc1)C(=O)N[C@H]1CSSC[C@@H](C(=O)N[C@H](CO)[C@@H](C)O)NC(=O)[C@H]([C@@H](C)O)NC(=O)[C@H](CCCCN)NC(=O)[C@@H](Cc2c[nH]c3ccccc23)NC(=O)[C@H](Cc2ccccc2)NC1=O` [OCT(Phe)-S-PPM] the “enhancement of cytotoxicity of PPM when conjugated with Phe-OCT” value (HepG2 hepatoma cells; HepG2, vs PPM) was 1.88 fold, the “concentration in tumor tissue” value ([1]; 15 min post injection, i.v.) was 0.168 µg/g and the “maximum concentration in tumor tissue” value ([1]; i.v., reached at 1 h) was 0.618 µg/g. For the same compound, the “AUC0–t in plasma, fold higher than that of PPM” value ([1]; i.v., vs PPM) was 1.73 fold, the “AUC0–t in tumor, fold higher than that of PPM” value ([1]; i.v., vs PPM) was 2.17 fold and the “total AUC0~t of heart, fold lower than that of PPM” value ([1]; i.v., vs PPM, P < 0.01) was 0.77 fold. For the same compound, the “total AUC0~t of liver, fold lower than that of PPM” value ([1]; i.v., vs PPM, P < 0.01) was 0.73 fold, the “AUC0–t Heart” value ([1]; i.v.) was 1.315 ± 0.239 µg·h/g and the “AUC0–t Kidney” value ([1]; i.v.) was 1.152 ± 0.132 µg·h/g. The “AUC0–t Liver” value ([1]; i.v.) was 1.441 ± 0.202 µg·h/g, the “AUC0–t Lung” value ([1]; i.v.) was 0.839 ± 0.083 µg·h/g and the “AUC0–t Plasma” value ([1]; i.v.) was 1.409 ± 0.196 µg·h/g. For the same compound, the “AUC0–t Spleen” value ([1]; i.v.) was 0.632 ± 0.079 µg·h/g, the “AUC0–t Tumor” value ([1]; i.v., 4 mg/kg) was 1.338 µg·h/g and 1.338 ± 0.195 µg·h/g and the final tumor weight (H22 tumor; 4 mg/kg i.v. every other day) was 0.287 ± 0.069 g. For the same compound, the “reduction of tumor volume compared to PPM (average)” value (H22 tumor; equimolar dose of PPM 4 mg/kg, i.v. every other day) was 1.56 fold, the “pathological images of heart sections” value [2] was “no evident differences from the control group” and the “pathological images of liver sections” value [2] was “no evident differences from the control group”. For the same compound, the ALT [2] was 23.25 ±5.76 U/L, the AST [2] was 56.83 ± 7.34 U/L and the ALP [2] was 124.90 ± 27.23 U/L.
For `C[C@@H](O)[C@@H]1NC(=O)[C@H](CCCCN)NC(=O)[C@@H](Cc2c[nH]c3ccccc23)NC(=O)[C@H](Cc2ccccc2)NC(=O)[C@@H](NC(=O)[C@H](N)Cc2ccccc2)CSSC[C@@H](C(=O)N[C@H](CO)[C@@H](C)O)NC1=O` [OCT, Octreotide], the IC50 ([3]; 72 h) was > 50000 nM, the IC50 (HepG2 hepatoma cells; 72 h) was > 50000 nM and the IC50 (L-02 cells; 72 h) was > 50000 nM. For the same compound, the final tumor weight (H22 tumor; 4 mg/kg i.v. every other day) was 0.765 ± 0.126 g, the ALT [2] was 34.48 ± 6.28 U/L and the AST [2] was 51.25 ± 5.2 U/L. For the same compound, the ALP [2] was 129.48 ± 18.54 U/L and the “plasma half-life, times more than endogenous somatostatin” value [4] was 30 times.
In the case of `CO[C@H]1C[C@H](O[C@H]2CC[C@]3(C)[C@H]4CC[C@]5(C)[C@@H](C6=CC(=O)OC6)CC[C@]5(O)[C@@H]4CC[C@]3(O)C2)O[C@H](C)[C@H]1O` [PPM, periplocymarin], the IC50 ([3]; Homo sapiens, MCF7, 72 h, MTT, 72 h of incubation, read-out: IC50 MCF-7) is reported as 35.9 nM, the IC50 [3, 7] is reported as 35.9 nM and the IC50 (HepG2 hepatoma cells; Homo sapiens, HepG2, MTT, 72 h of incubation, read-out: IC50 HepG2) is reported as 138 nM. For the same compound, the IC50 (L-02 cells; Homo sapiens, L02, MTT, 72 h of incubation, read-out: IC50 L-02) was 128 nM, the IC50 ([5]; Mus musculus) was 38.4 nM and the “AUC0–t Heart” value ([1]; i.v.) was 1.692 ± 0.283 µg·h/g. The “AUC0–t Kidney” value ([1]; i.v.) was 1.773 ± 0.393 µg·h/g, the “AUC0–t Liver” value ([1]; i.v.) was 1.967 ± 0.321 µg·h/g and the “AUC0–t Lung” value ([1]; i.v.) was 0.457 ± 0.092 µg·h/g. For the same compound, the “AUC0–t Plasma” value ([1]; i.v.) was 0.812 ± 0.143 µg·h/g, the “AUC0–t Spleen” value ([1]; i.v.) was 0.257 ± 0.086 µg·h/g and the “AUC0–t Tumor” value ([1]; i.v., 4 mg/kg) was 0.614 µg·h/g and 0.614 ± 0.128 µg·h/g. The Kp at 15 min ([1]; male, Kunming, mouse, heart / blood, iv, 15 min post injection, i.v. 4 mg/kg, read-out: ratio of the PPM concentration in heart and blood) was 1.18, the Kp at 1 h ([1]; male, Kunming, mouse, heart / blood, iv, 1 h post injection, i.v. 4 mg/kg, read-out: ratio of the PPM concentration in heart and blood) was 5.21 and the concentration at 15 min ([1]; male, Kunming, mouse, tumor, iv, 4 mg/kg, 15 min post injection) was 917 ng/g. For the same compound, the final tumor weight (H22 tumor; 4 mg/kg i.v. every other day) was 0.423 ± 0.087 g, the tumor inhibition rate (H22 tumor; 4 mg/kg i.v. every other day, from tumor weights) was 51.71% and the “pathological images of heart sections” value [2] was “irregularly arranged myocardial cells and slightly lymphocyte infiltration in the interstitial tissue of the myocardium”. The “pathological images of liver sections” value [2] was “obvious soma shrinking, dissociation of hepatic cord, dilation of hepatic sinusoids and lymphocytosis”, the average body weight ([2]; during treatment, vs control group, P < 0.01) was “less than that of the control group” and the ALT [2] was 62.43 ± 13.52 U/L. The AST [2] was 68.21 ± 8.95 U/L, the ALP [2] was 184.23 ± 21.48 U/L and the IC50 [6] was 20 to 290 nM.
`C[C@]12CC[C@H](O)C[C@@]1(O)CC[C@@H]1[C@@H]2CC[C@]2(C)[C@@H](C3=CC(=O)OC3)CC[C@]12O` [periplogenin] gave an IC50 [3, 7] of 902 nM, an IC50 (HepG2 hepatoma cells; MTT, 72 h of incubation, read-out: IC50 HepG2) of 580 nM and an IC50 (L-02 cells; MTT, 72 h of incubation, read-out: IC50 L-02) of 406 nM. For the same compound, the IC50 [5] was 509 nM.
For Somatostatin [somatostatins], the half-life in circulation ([4]; in vivo) is listed as 1 to 3 min.
